Measured values: PubChem BioAssay (NCI)
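Five concentrations, 48 hours, 96-well plates. TGI: concentration producing complete growth inhibition.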

Experiments:
Assay in all cases: inhibition of tumour cell growth, NCI panel, 48 h
786-0 renal = test system: 786-0 renal
A498 renal = test system: A498 renal
A549 NSCLC = test system: A549 NSCLC
ACHN renal = test system: ACHN renal
CAKI-1 renal = test system: CAKI-1 renal
CCRF-CEM leukemia = test system: CCRF-CEM leukemia
COLO 205 colon = test system: COLO 205 colon
DLD-1 colon = test system: DLD-1 colon
DMS 114 small cell lung = test system: DMS 114 small cell lung
DMS 273 small cell lung = test system: DMS 273 small cell lung
HCC-2998 colon = test system: HCC-2998 colon
HCT-116 colon = test system: HCT-116 colon
HCT-15 colon = test system: HCT-15 colon
HL-60(TB) leukemia = test system: HL-60(TB) leukemia
HOP-18 NSCLC = test system: HOP-18 NSCLC
HOP-62 NSCLC = test system: HOP-62 NSCLC
HOP-92 NSCLC = test system: HOP-92 NSCLC
HT29 colon = test system: HT29 colon
IGROV1 ovarian = test system: IGROV1 ovarian
K-562 leukemia = test system: K-562 leukemia
KM12 colon = test system: KM12 colon
LOX IMVI melanoma = test system: LOX IMVI melanoma
LXFL 529 NSCLC = test system: LXFL 529 NSCLC
M14 melanoma = test system: M14 melanoma
M19-MEL melanoma = test system: M19-MEL melanoma
MALME-3M melanoma = test system: MALME-3M melanoma
MOLT-4 leukemia = test system: MOLT-4 leukemia
NCI-H23 lung = test system: NCI-H23 lung
NCI-H460 lung = test system: NCI-H460 lung
NCI-H522 lung = test system: NCI-H522 lung
OVCAR-3 ovarian = test system: OVCAR-3 ovarian
OVCAR-4 ovarian = test system: OVCAR-4 ovarian
OVCAR-5 ovarian = test system: OVCAR-5 ovarian
OVCAR-8 ovarian = test system: OVCAR-8 ovarian
RPMI-8226 leukemia = test system: RPMI-8226 leukemia
RXF 393 renal = test system: RXF 393 renal
SF-268 CNS = test system: SF-268 CNS
SF-295 CNS = test system: SF-295 CNS
SF-539 CNS = test system: SF-539 CNS
SK-MEL-2 melanoma = test system: SK-MEL-2 melanoma
SK-MEL-28 melanoma = test system: SK-MEL-28 melanoma
SK-MEL-5 melanoma = test system: SK-MEL-5 melanoma
SK-OV-3 ovarian = test system: SK-OV-3 ovarian
SN12C renal = test system: SN12C renal
SNB-19 CNS = test system: SNB-19 CNS
SNB-75 CNS = test system: SNB-75 CNS
SR leukemia = test system: SR leukemia
SW-620 colon = test system: SW-620 colon
TK-10 renal = test system: TK-10 renal
U251 CNS = test system: U251 CNS
UACC-62 melanoma = test system: UACC-62 melanoma
UO-31 renal = test system: UO-31 renal
EKVX NSCLC = test system: EKVX NSCLC
KM20L2 colon = test system: KM20L2 colon
NCI-H226 lung = test system: NCI-H226 lung
SNB-78 CNS = test system: SNB-78 CNS
UACC-257 melanoma = test system: UACC-257 melanoma

`O=[N+]([O-])c1ccc(C2CC(c3ccc(NCc4nc5ccccc5[nH]4)cc3)=NO2)cc1` (configuration not stated) gave a TGI (786-0 renal) of over 100 µM, a TGI (A498 renal) of 73.5 µM and a TGI (A549 NSCLC) of over 100 µM. For the same molecule, the TGI (ACHN renal) was over 100 µM, the TGI (CAKI-1 renal) was over 100 µM and the TGI (CCRF-CEM leukemia) was over 100 µM. For the same molecule, the TGI (COLO 205 colon) was over 100 µM, the TGI (DLD-1 colon) was over 100 µM and the TGI (DMS 114 small cell lung) was over 100 µM. For the same molecule, the TGI (DMS 273 small cell lung) was over 100 µM, the TGI (HCC-2998 colon) was over 100 µM and the TGI (HCT-116 colon) was over 100 µM. The TGI (HCT-15 colon) was over 100 µM, the TGI (HL-60(TB) leukemia) was over 100 µM and the TGI (HOP-18 NSCLC) was over 100 µM. It also gave a TGI (HOP-62 NSCLC) of over 100 µM, a TGI (HOP-92 NSCLC) of over 100 µM and a TGI (HT29 colon) of over 100 µM. The TGI (IGROV1 ovarian) was over 100 µM, the TGI (K-562 leukemia) was over 100 µM and the TGI (KM12 colon) was over 100 µM. It also gave a TGI (LOX IMVI melanoma) of over 100 µM, a TGI (LXFL 529 NSCLC) of 97.9 µM and a TGI (M14 melanoma) of over 100 µM. It also gave a TGI (M19-MEL melanoma) of over 100 µM, a TGI (MALME-3M melanoma) of over 100 µM and a TGI (MOLT-4 leukemia) of over 100 µM. For the same molecule, the TGI (NCI-H23 lung) was over 100 µM, the TGI (NCI-H460 lung) was over 100 µM and the TGI (NCI-H522 lung) was over 100 µM. The TGI (OVCAR-3 ovarian) was 57.4 µM, the TGI (OVCAR-4 ovarian) was over 100 µM and the TGI (OVCAR-5 ovarian) was over 100 µM. It also gave a TGI (OVCAR-8 ovarian) of over 100 µM, a TGI (RPMI-8226 leukemia) of over 100 µM and a TGI (RXF 393 renal) of over 100 µM. For the same molecule, the TGI (SF-268 CNS) was over 100 µM, the TGI (SF-295 CNS) was over 100 µM and the TGI (SF-539 CNS) was over 100 µM. For the same molecule, the TGI (SK-MEL-2 melanoma) was over 100 µM, the TGI (SK-MEL-28 melanoma) was over 100 µM and the TGI (SK-MEL-5 melanoma) was 32.5 µM. It also gave a TGI (SK-OV-3 ovarian) of over 100 µM, a TGI (SN12C renal) of over 100 µM and a TGI (SNB-19 CNS) of over 100 µM. The TGI (SNB-75 CNS) was over 100 µM, the TGI (SR leukemia) was over 100 µM and the TGI (SW-620 colon) was over 100 µM. For the same molecule, the TGI (TK-10 renal) was over 100 µM, the TGI (U251 CNS) was over 100 µM and the TGI (UACC-62 melanoma) was over 100 µM. The TGI (UO-31 renal) was over 100 µM.
`COc1ccc2c(c1)[n+](=O)c(C(=O)CC(=O)C(=O)Nc1cccc(Cl)c1C)c(C)n2[O-]` gave a TGI (786-0 renal) of over 100 µM, a TGI (A498 renal) of over 100 µM and a TGI (A549 NSCLC) of over 100 µM. The TGI (ACHN renal) was over 100 µM, the TGI (CAKI-1 renal) was over 100 µM and the TGI (CCRF-CEM leukemia) was 71.2 µM. The TGI (COLO 205 colon) was over 100 µM, the TGI (DMS 273 small cell lung) was over 100 µM and the TGI (EKVX NSCLC) was over 100 µM. It also gave a TGI (HCC-2998 colon) of over 100 µM, a TGI (HCT-116 colon) of over 100 µM and a TGI (HCT-15 colon) of over 100 µM. The TGI (HL-60(TB) leukemia) was over 100 µM, the TGI (HOP-18 NSCLC) was over 100 µM and the TGI (HOP-62 NSCLC) was over 100 µM. The TGI (HOP-92 NSCLC) was over 100 µM, the TGI (HT29 colon) was over 100 µM and the TGI (IGROV1 ovarian) was over 100 µM. It also gave a TGI (K-562 leukemia) of over 100 µM, a TGI (KM12 colon) of over 100 µM and a TGI (KM20L2 colon) of over 100 µM. The TGI (LOX IMVI melanoma) was over 100 µM, the TGI (LXFL 529 NSCLC) was over 100 µM and the TGI (M14 melanoma) was over 100 µM. For the same molecule, the TGI (M19-MEL melanoma) was over 100 µM, the TGI (MALME-3M melanoma) was over 100 µM and the TGI (MOLT-4 leukemia) was over 100 µM. The TGI (NCI-H226 lung) was over 100 µM, the TGI (NCI-H23 lung) was over 100 µM and the TGI (NCI-H460 lung) was over 100 µM. It also gave a TGI (NCI-H522 lung) of 58 µM, a TGI (OVCAR-3 ovarian) of 94.7 µM and a TGI (OVCAR-4 ovarian) of over 100 µM. It also gave a TGI (OVCAR-5 ovarian) of over 100 µM, a TGI (OVCAR-8 ovarian) of over 100 µM and a TGI (RPMI-8226 leukemia) of over 100 µM. The TGI (RXF 393 renal) was over 100 µM, the TGI (SF-268 CNS) was over 100 µM and the TGI (SF-295 CNS) was over 100 µM. For the same molecule, the TGI (SF-539 CNS) was over 100 µM, the TGI (SK-MEL-2 melanoma) was over 100 µM and the TGI (SK-MEL-28 melanoma) was over 100 µM. It also gave a TGI (SK-MEL-5 melanoma) of over 100 µM, a TGI (SK-OV-3 ovarian) of over 100 µM and a TGI (SN12C renal) of over 100 µM. The TGI (SNB-19 CNS) was over 100 µM, the TGI (SNB-75 CNS) was over 100 µM and the TGI (SNB-78 CNS) was over 100 µM. It also gave a TGI (SR leukemia) of over 100 µM, a TGI (SW-620 colon) of over 100 µM and a TGI (TK-10 renal) of over 100 µM. For the same molecule, the TGI (U251 CNS) was over 100 µM, the TGI (UACC-257 melanoma) was over 100 µM and the TGI (UACC-62 melanoma) was over 100 µM. The TGI (UO-31 renal) was over 100 µM.
